Measurements as given in US20240174662A1, “SMALL MOLECULE INHIBITORS OF SALT INDUCIBLE KINASES” (Janssen Biotech, Inc., priority 2021, published 2024).
Several values for one entry are separate records, joined by “and”; a condition that tells them apart may be missing. Equal entries are not always repeated.

These compounds were tested against SIK2 (Homo sapiens (Human), UniProt Q9H0K1) (assay: SIK2 Enzymatic Assay Version 2 (High ATP)). Details: 3 mM ATP and 200 μM HDAC5tide final, ADP-Glo Max luminescence.
Sequence of SIK2 (Q9H0K1 whole entry, species assumed): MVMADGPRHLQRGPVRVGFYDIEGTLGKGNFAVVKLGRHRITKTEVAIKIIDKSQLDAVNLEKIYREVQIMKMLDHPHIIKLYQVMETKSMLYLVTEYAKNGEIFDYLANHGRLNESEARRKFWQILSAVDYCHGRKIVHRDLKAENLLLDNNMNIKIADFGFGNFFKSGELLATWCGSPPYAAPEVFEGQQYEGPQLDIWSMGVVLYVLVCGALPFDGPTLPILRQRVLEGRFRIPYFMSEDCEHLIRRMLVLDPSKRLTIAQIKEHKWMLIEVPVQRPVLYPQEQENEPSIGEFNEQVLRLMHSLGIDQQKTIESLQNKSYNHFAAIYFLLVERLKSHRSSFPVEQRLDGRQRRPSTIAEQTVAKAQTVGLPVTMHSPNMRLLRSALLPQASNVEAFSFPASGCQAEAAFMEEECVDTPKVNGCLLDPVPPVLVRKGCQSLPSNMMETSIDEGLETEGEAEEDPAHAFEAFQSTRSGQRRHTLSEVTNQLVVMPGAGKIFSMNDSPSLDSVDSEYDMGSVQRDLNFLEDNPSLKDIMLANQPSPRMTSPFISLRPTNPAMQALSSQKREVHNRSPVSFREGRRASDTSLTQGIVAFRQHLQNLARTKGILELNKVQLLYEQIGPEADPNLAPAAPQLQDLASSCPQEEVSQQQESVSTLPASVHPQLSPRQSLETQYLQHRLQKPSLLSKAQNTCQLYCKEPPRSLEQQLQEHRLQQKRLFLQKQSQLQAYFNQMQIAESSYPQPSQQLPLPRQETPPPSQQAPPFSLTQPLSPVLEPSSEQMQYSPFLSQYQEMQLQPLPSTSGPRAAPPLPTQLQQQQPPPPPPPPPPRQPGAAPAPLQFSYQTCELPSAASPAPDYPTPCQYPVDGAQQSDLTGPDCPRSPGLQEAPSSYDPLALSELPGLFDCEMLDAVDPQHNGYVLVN
Assay type: biochemical
In short: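 Luminescent ADP-Glo Max read-out: depletion reagent 2 h, then detection reagent 1 h. Before the reaction, compounds were incubated 30 min with enzyme added at 6 nM (twice final concentration), with all steps at room temperature.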
Compound `CN1CC[C@@H]1COc1cnn(C)c1-c1ccn2nc(Nc3cnc(C(F)(F)F)cn3)cc2c1` [Example 150, 5-[2-methyl-4-[[(2R)-1-methylazetidin-2-yl]methoxy]pyrazol-3-yl]-N-[5-(trifluoromethyl)pyrazin-2-yl]pyrazolo[1,5-a]pyridin-2-amine] has an IC50 of 7.6 nM.
For `Cc1cc(Nc2cc3cc(-c4c(OC[C@H]5CCN5C)cnn4C)ccn3n2)nc(C(C)(C)C)n1` [Example 151, N-(2-tert-butyl-6-methyl-pyrimidin-4-yl)-5-[2-methyl-4-[[(2R)-1-methylazetidin-2-yl]methoxy]pyrazol-3-yl]pyrazolo[1,5-a]pyridin-2-amine], the IC50 was under 0.847 nM.
Work on `Cc1cc(Nc2cc3cc(-c4c(OC[C@H]5CCN5C)cnn4C)ccn3n2)nn(C)c1=O` [Example 152, 2,4-dimethyl-6-[[5-[2-methyl-4-[[(2R)-1-methylazetidin-2-yl]methoxy]pyrazol-3-yl]pyrazolo[1,5-a]pyridin-2-yl]amino]pyridazin-3-one] yielded an IC50 of under 0.847 nM.
In the case of `Cc1cc(Nc2cc3cc(-c4c(OC[C@H]5CCN5C)cnn4C)ccn3n2)nc(CC2CC2)n1` [Example 153, N-[2-(cyclopropylmethyl)-6-methyl-pyrimidin-4-yl]-5-[2-methyl-4-[[(2R)-1-methylazetidin-2-yl]methoxy]pyrazol-3-yl]pyrazolo[1,5-a]pyridin-2-amine], the IC50 is reported as under 0.847 nM.
Work on `COc1cnc(Nc2cc3cc(-c4c(OC[C@H]5CCN5C)cnn4C)ccn3n2)cn1` [Example 154, N-(5-methoxypyrazin-2-yl)-5-[2-methyl-4-[[(2R)-1-methylazetidin-2-yl]methoxy]pyrazol-3-yl]pyrazolo[1,5-a]pyridin-2-amine] yielded an IC50 of 7.9 nM.
`CN1CC[C@@H]1COc1cnn(C)c1-c1ccn2nc(Nc3cnc(OC(F)F)cn3)cc2c1` [Example 155, N-[5-(difluoromethoxy)pyrazin-2-yl]-5-[2-methyl-4-[[(2R)-1-methylazetidin-2-yl]methoxy]pyrazol-3-yl]pyrazolo[1,5-a]pyridin-2-amine] gave an IC50 of 6.6 nM.
For `CN1CC[C@@H]1COc1cnn(C)c1-c1ccn2nc(NC(=O)[C@H]3C[C@H]3c3ccccc3)cc2c1` [Example 158, (1S,2R)—N-[5-[2-methyl-4-[[(2R)-1-methylazetidin-2-yl]methoxy]pyrazol-3-yl]pyrazolo[1,5-a]pyridin-2-yl]-2-phenyl-cyclopropanecarboxamide], the IC50 was 47.7 nM.
In the case of `CCN1CC[C@@H]1COc1cnn(C)c1-c1ccn2nc(Nc3cnc(C(F)(F)F)cn3)cc2c1` [Example 160, 5-[4-[[(2R)-1-ethylazetidin-2-yl]methoxy]-2-methyl-pyrazol-3-yl]-N-[5-(trifluoromethyl)pyrazin-2-yl]pyrazolo[1,5-a]pyridin-2-amine], the IC50 is reported as 2.5 nM and 3.6 nM.
Compound `CCN1CC[C@@H]1COc1cnn(C)c1-c1ccn2nc(Nc3ccnc(C(F)(F)F)n3)cc2c1` [Example 161, 5-[4-[[(2R)-1-ethylazetidin-2-yl]methoxy]-2-methyl-pyrazol-3-yl]-N-[2-(trifluoromethyl)pyrimidin-4-yl]pyrazolo[1,5-a]pyridin-2-amine] has an IC50 of under 0.847 nM.
`CCN1CC[C@@H]1COc1cnn(C)c1-c1ccn2nc(Nc3cc(C(F)(F)F)nc(C)n3)cc2c1` [Example 162, 5-[4-[[(2R)-1-ethylazetidin-2-yl]methoxy]-2-methyl-pyrazol-3-yl]-N-[2-methyl-6-(trifluoromethyl)pyrimidin-4-yl]pyrazolo[1,5-a]pyridin-2-amine] was tested, and the IC50 was under 0.847 nM.
`CCN1CC[C@@H]1COc1cnn(C)c1-c1ccn2nc(Nc3ccnc(OC)n3)cc2c1` [Example 163, 5-[4-[[(2R)-1-ethylazetidin-2-yl]methoxy]-2-methyl-pyrazol-3-yl]-N-(2-methoxypyrimidin-4-yl)pyrazolo[1,5-a]pyridin-2-amine] was tested, and the IC50 was 2.2 nM.
With `CCN1CC[C@@H]1COc1cnn(C)c1-c1ccn2nc(Nc3cc(C(F)(F)F)ncn3)cc2c1` [Example 164, 5-[4-[[(2R)-1-ethylazetidin-2-yl]methoxy]-2-methyl-pyrazol-3-yl]-N-[6-(trifluoromethyl)pyrimidin-4-yl]pyrazolo[1,5-a]pyridin-2-amine] the IC50 was 1.5 nM.
